# Source: patent US8067032B2, “Method for preparing submicron particles of antineoplastic agents” (Baxter International Inc., priority 2000, dated 2011)
# Assay: Solubility of itraconazole in NMP
# Assay type: physicochemical
# Conditions: organic solvent or mixture, room temperature (approximately 22° C.)
# Experimental: Sample preparation. […] A 0.20 g/mL drug concentrate solution was prepared by dissolving 2.0 g of itraconazole and 0.2 g Poloxamer 188 in 10 mL NMP with heat and stirring. This solution was then allowed to cool to room temperature to yield a supersaturated solution. A microprecipitation experiment was immediately performed in which 1.5 mL of the drug concentrate was added to 30 mL of an aqueous solution containing 0.1% deoxycholate, 2.2% glycerol. The aqueous solution was maintained at ˜2° C. and a stir rate of 350 rpm during the addition step. The resulting presuspension was homogenized at ˜13,000 psi for approx. 10 minutes at 50° C. The suspension was then centrifuged, the supernatant decanted, and the solid crystals dried in a vacuum oven at 30° C. for 135 hours.
compound,measurement,value
CCC(C)n1ncn(-c2ccc(N3CCN(c4ccc(OCC5COC(Cn6cncn6)(c6ccc(Cl)cc6Cl)O5)cc4)CC3)cc2)c1=O (stereo not shown) [itraconazole],solubility,160 mg/mL
